Data taken from the supplement of paper PMC11061612.

What was measured:
[1] = tested on: EW-22 (Ewing's Sarcoma); assay: Bliss excess, mean over the matrix (fraction); higher = more synergy
Method in brief: (§1)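 Bliss excess equals the observed combination effect minus the expected value EA + EB − EA·EB, where EA and EB are the effects of each agent alone. Combination Emax is the second-highest inhibition within the matrix. Inhibition was scaled from CellTiter-Glo 2.0 luminescence, with 0 set by vehicle wells and 1 by blank wells, after 72 hours of two-drug dosing of cells plated in 1536-well plates.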

[2] = tested on: FU-OV-1 (Ovarian Carcinoma); assay: as above
Method in brief: as §1

[3] = tested on: SW948 (Colorectal Carcinoma); assay: as above
Method in brief: as §1

[4] = tested on: SK-LMS-1 (Other Solid Carcinomas); assay: as above
Method in brief: as §1

[5] = tested on: MEG-01 (Chronic Myelogenous Leukemia); assay: as above
Method in brief: as §1

[6] = tested on: SK-MEL-1 (Melanoma); assay: as above
Method in brief: as §1

[7] = tested on: HLE (Hepatocellular Carcinoma); assay: as above
Method in brief: as §1

[8] = tested on: P31-FUJ (Acute Myeloid Leukemia); assay: as above
Method in brief: as §1

[9] = tested on: SW48 (Colorectal Carcinoma); assay: as above
Method in brief: as §1

[10] = tested on: SLVL (B-Cell Non-Hodgkin's Lymphoma); assay: as above
Method in brief: as §1

[11] = tested on: BICR78 (Oral Cavity Carcinoma); assay: as above
Method in brief: as §1

[12] = tested on: CAL-39 (Other Solid Carcinomas); assay: as above
Method in brief: as §1

[13] = tested on: MSTO-211H (Mesothelioma); assay: as above
Method in brief: as §1

[14] = tested on: FU-OV-1 (Ovarian Carcinoma); assay: combination Emax (second highest fraction inhibited in the dose matrix, 72 h); higher = more inhibition; extreme values may be limits of the assay
Method in brief: as §1

[15] = tested on: NOMO-1 (Acute Myeloid Leukemia); assay: as above
Method in brief: as §1

[16] = tested on: DOK (Oral Cavity Carcinoma); assay: as above
Method in brief: as §1

[17] = tested on: YT (Other Blood Carcinomas); assay: as above
Method in brief: as §1

[18] = tested on: P31-FUJ (Acute Myeloid Leukemia); assay: as above
Method in brief: as §1

[19] = tested on: SW48 (Colorectal Carcinoma); assay: as above
Method in brief: as §1

[20] = tested on: CAL-39 (Other Solid Carcinomas); assay: as above
Method in brief: as §1

SMILES	Bliss excess [1]	Bliss excess [2]	Bliss excess [3]	Bliss excess [4]	Bliss excess [5]	Bliss excess [6]	Bliss excess [7]	Bliss excess [8]	Bliss excess [9]	Bliss excess [10]	Bliss excess [11]	Bliss excess [12]	Bliss excess [13]	combination Emax [14]	combination Emax [15]	combination Emax [16]	combination Emax [17]	combination Emax [18]	combination Emax [19]	combination Emax [20]
O=C(c1cc(Cc2n[nH]c(=O)c3ccccc23)ccc1F)N1CCN(C(=O)C2CC2)CC1 [Olaparib] + COc1nnc2ccc(N3CCC(c4ccc(OCCN5CCN(C)C(=O)[C@H]5C)cc4)CC3)nn12 [AZD5153] (first compound max 10 µM, 7x7, partner max 1 µM)	0.0369	-0.0107	-0.0441	-0.0329	-0.0579	-0.0316	-0.0392	-0.0621	-0.071	0.0142	-0.0458	-0.0634	-0.0085	0.59	0.939	0.445	0.53	0.57	0.561	0.518
C[C@@H](Nc1cc(F)cc(F)c1)c1cc(C(=O)N(C)C)cc2c(=O)cc(N3CCOCC3)oc12 [AZD8186] + C1CN(CCC1(C(=O)N[C@@H](CCO)C2=CC=C(C=C2)Cl)N)C3=NC=NC4=C3C=CN4 [AZD5363] (first compound max 10 µM, 7x7, partner max 10 µM)	-0.0197	-0.117	0.0414	0.0606	-0.0906	-0.039	0.0045	-0.03	-0.024	0.0553	-0.0269	0.0492	0.0272	0.401	0.45	0.655	0.247	0.521	0.557	0.667
N#Cc1cnc(Nc2cc(NC[C@H]3CNCCO3)c(C(F)(F)F)cn2)cn1 [SRA737] + O=c1[nH]cc(F)c(=O)[nH]1 [5-Fluorouracil] (first compound max 10 µM, 7x7, partner max 20 µM)	0.0416	-0.0284	-0.0314	-0.0143	-0.0518	-0.0178	-0.0146	-0.0034	-0.0588	-0.0551	0.0904	0.0175	0.0301	0.158	0.985	0.345	0.993	0.98	0.592	0.345
C[C@@H](Oc1cc(-c2cnn(C3CCNCC3)c2)cnc1N)c1c(Cl)ccc(F)c1Cl [Crizotinib] + Cn1cnc2c(F)c(Nc3ccc(Br)cc3Cl)c(C(=O)NOCCO)cc21 [Selumetinib] (first compound max 10 µM, 7x7, partner max 10 µM)	-0.0226	0.0748	0.0137	0.0367	0.0179	-0.0618	0.0014	-0.0781	-0.0323	-0.0414	0.0006	0.0132	0.0294	0.673	0.889	0.933	0.621	0.755	0.95	0.866
